Legend:
Format in all cases: functional
[1] = tested on: MDA-MB-468; experiment: Cytotoxicity against human MDA-MB-468 cells assessed as cellular growth at 10 uM by SRB assay
[2] = tested on: T47D; experiment: Cytotoxicity against human T47D cells assessed as cellular growth at 10 uM by SRB assay
[3] = tested on: BT-549; experiment: Cytotoxicity against human BT549 cells assessed as cellular growth at 10 uM by SRB assay
[4] = tested on: Hs-578T; experiment: Cytotoxicity against human Hs578T cells assessed as cellular growth at 10 uM by SRB assay
[5] = tested on: UO-31; experiment: Cytotoxicity against human UO31 cells assessed as cellular growth at 10 uM by SRB assay
[6] = tested on: RXF 393; experiment: Cytotoxicity against human RXF393 cells assessed as cellular growth at 10 uM by SRB assay
[7] = tested on: 786-0; experiment: Cytotoxicity against human 786-0 cells assessed as cellular growth at 10 uM by SRB assay
[8] = tested on: SK-OV-3; experiment: Cytotoxicity against human SKOV3 cells assessed as cellular growth at 10 uM by SRB assay
[9] = tested on: OVCAR-3; experiment: Cytotoxicity against human OVCAR3 cells assessed as cellular growth at 10 uM by SRB assay
[10] = tested on: SK-MEL-5; experiment: Cytotoxicity against human SK-MEL-5 cells assessed as cellular growth at 10 uM by SRB assay
[11] = tested on: SNB-75; experiment: Cytotoxicity against human SNB75 cells assessed as cellular growth at 10 uM by SRB assay
[12] = tested on: SNB-19; experiment: Cytotoxicity against human SNB19 cells assessed as cellular growth at 10 uM by SRB assay
[13] = tested on: SF-539; experiment: Cytotoxicity against human SF539 cells assessed as cellular growth at 10 uM by SRB assay
[14] = tested on: KM12; experiment: Cytotoxicity against human KM12 cells assessed as cellular growth at 10 uM by SRB assay
[15] = tested on: HCT-15; experiment: Cytotoxicity against human HCT15 cells assessed as cellular growth at 10 uM by SRB assay
[16] = tested on: HCT-116; experiment: Cytotoxicity against human HCT116 cells assessed as cellular growth at 10 uM by SRB assay
[17] = tested on: NCI-H522; experiment: Cytotoxicity against human NCI-H522 cells assessed as cellular growth at 10 uM by SRB assay
[18] = tested on: NCI-H226; experiment: Cytotoxicity against human NCI-H226 cells assessed as cellular growth at 10 uM by SRB assay
[19] = tested on: NCI-H23; experiment: Cytotoxicity against human NCI-H23 cells assessed as cellular growth at 10 uM by SRB assay
[20] = tested on: CCRF-CEM; experiment: Cytotoxicity against human CCRF-CEM cells assessed as cellular growth at 10 uM by SRB assay

| SMILES | Activity [1] | Activity [2] | Activity [3] | Activity [4] | Activity [5] | Activity [6] | Activity [7] | Activity [8] | Activity [9] | Activity [10] | Activity [11] | Activity [12] | Activity [13] | Activity [14] | Activity [15] | Activity [16] | Activity [17] | Activity [18] | Activity [19] | Activity [20] |
| --- | --- | --- | --- | --- | --- | --- | --- | --- | --- | --- | --- | --- | --- | --- | --- | --- | --- | --- | --- | --- |
| O=C1N=C(c2ccccc2)S/C1=C\c1ccc2c(c1)OCO2 | 98.71% | 94.58% | 108.62% | 94.3% | 86.92% | 115.74% | 100.46% | 98.47% | 95.8% | 96.34% | 95.66% | 98.6% | 95.81% | 92.95% | 101.73% | 104.4% | 105.96% | 95.12% | 114.7% | 90.34% |
| Cc1ccc(Cl)cc1NC(=O)c1sc2nc3c(cc2c1N)C(=O)CCC3 | 8.44% | 82.87% | 93.5% | 60.85% | 83.44% | 42.15% | 89.229% | 42.36% | 22.12% | 26.98% | 48.01% | 68.14% | 47.69% | 37.01% | 45.91% | 67.98% | 22.92% | 88.29% | 63.04% | 49.18% |
| COc1ccc2[nH]c(C(=O)NCc3ccccc3)cc2c1 | 99.1% | 85.87% | 104.33% | 112.57% | 75.52% | 101.97% | 103.19% | 108.16% | 112.21% | 97.92% | 87.91% | 101.29% | 101.58% | 111.34% | 94.58% | 94.88% | 90.46% | 96.37% | 89.11% | 85.19% |
| O=C(Nc1nc2ccccc2s1)c1ccc(F)cc1 | 94.15% | 55.31% | 109.49% | 140.08% | 89.11% | 106.77% | 107.84% | 108.36% | 103.91% | 91.3% | 96.73% | 126.08% | 101.66% | 52.84% | 85.53% | 92.81% | 92.24% | 92.69% | 89.91% | 100.74% |
| O=S(=O)(Oc1ccc(-c2cnc3ccccc3n2)cc1)c1ccccc1 | 84.46% | 86.45% | 96.82% | 145.79% | 94.43% | 102.24% | 92.9% | 106.76% | 112.06% | 92.11% | 108.13% | 102.07% | 94.38% | 111.44% | 98.25% | 94.15% | 78.75% | 94.97% | 96.29% | 85.64% |
| Cc1ccc(S(=O)(=O)NC2=NC(=O)/C(=C\c3ccccc3)S2)cc1 | 110.23% | 100.5% | 113.45% | 128.48% | 90.79% | 118.7% | 107.82% | 107.71% | 116.48% | 100.29% | 88.62% | 108.61% | 96.06% | 115% | 104.84% | 111.6% | 85.18% | 108.84% | 107.93% | 92.01% |
| Clc1cccc(-c2nc(-c3cccs3)no2)c1 | 44.69% | 56.93% | 101.91% | 99.53% | 71.35% | 114.21% | 94.52% | 99.21% | 102.94% | 87.95% | 88.55% | 105.12% | 102.16% | 102.96% | 105.75% | 97.8% | 85.77% | 97.3% | 89.88% | 91.91% |
| N#Cc1ccc(-n2nnc3ccccc32)cc1C#N | 99.52% | 86.31% | 106.48% | 105.04% | 88.55% | 100.39% | 99.49% | 98.76% | 101.15% | 97.62% | 120.55% | 112.27% | 101.14% | 96.37% | 99.78% | 102.06% | 88.08% | 96.73% | 94% | 93.15% |
| Cc1ccccc1NC(=O)c1sc2nc3c(cc2c1N)C(=O)CCC3 | -4.56% | 43.92% | 55.62% | 25.78% | 77.51% | -10.38% | 51.56% | 22.08% | 4.33% | 18.64% | 13.12% | 46.1% | 27.63% | 19.22% | 32.76% | 34.55% | 12.53% | 65.79% | 50.58% | 30.28% |
| O=C(Nc1nc2ccc(Cl)cc2s1)c1ccc(Cl)cc1 | 114.39% | 93.28% | 106.78% | 98.57% | 97.6% | 111.55% | 101.53% | 89.31% | 112.95% | 94.67% | 100.74% | 125.32% | 88.34% | 102.62% | 98.99% | 98.42% | 99.64% | 84.73% | 91.71% | 96.23% |
| Nc1c(C(=O)NCc2ccccc2)sc2nc3c(cc12)C(=O)CCC3 | 116.37% | 106.44% | 120.38% | 122.77% | 109.24% | 122.76% | 110.1% | 111.91% | 115.33% | 100.24% | 113.06% | 117.75% | 105.28% | 106.46% | 105.31% | 108.9% | 109.84% | 106.37% | 106.63% | 102.77% |
| CC1(C)CC(=O)c2cc3c(N)c(C(=O)NCc4ccccc4)sc3nc2C1 | 93.1% | 100.55% | 110.98% | 123.14% | 110.68% | 93.07% | 109.38% | 111.17% | 115.21% | 91.1% | 98.33% | 108.68% | 96.57% | 105.75% | 100.56% | 103.66% | 92.67% | 86.42% | 97.31% | 99.55% |
| O=C(Nc1ccc(S(=O)(=O)Nc2nccs2)cc1)c1cccs1 | 102.57% | 105.19% | 114.16% | 122.2% | 95.49% | 110.47% | 104.56% | 117.21% | 116.67% | 107.39% | 87.94% | 106.66% | 105.81% | 114.86% | 104.67% | 108.46% | 93.79% | 108.77% | 108.72% | 89.52% |
| Nc1c(C(=O)Nc2ccccc2)sc2nc3c(cc12)C(=O)CCC3 | 4.62% | 47.06% | 65.66% | 37.53% | 71.08% | -9.9% | 36.19% | 19.71% | -19.35% | 25.74% | 12.41% | 36.05% | 0.84% | 19.9% | 27.18% | 23.57% | -33.85% | 68% | 39.48% | 16.76% |
| Cc1ccc(NC(=O)c2sc3nc4c(cc3c2N)C(=O)CCC4)cc1Cl | 104.98% | 105.09% | 114.66% | 112.53% | 110.67% | 117.2% | 103.81% | 113.94% | 112.77% | 101.61% | 110.07% | 114.43% | 102.38% | 115.57% | 97.31% | 105.04% | 96.14% | 101.89% | 100.21% | 104.3% |
| Cc1ccc(C2=N/C(=C\c3ccccc3)C(=O)O2)cc1 | 99.59% | 105.06% | 103.91% | 96.01% | 102.89% | 130.71% | 103.22% | 109.52% | 105.55% | 105.32% | 90.22% | 103.53% | 103.23% | 108.78% | 100.23% | 114.29% | 95.94% | 102% | 101.26% | 94.95% |
